{
  "source": "patent US20190083459A1",
  "about": "“PHARMACEUTICAL COMPOSITION AND USE THEREOF” (WATERSTONE PHARMACEUTICALS(WUHAN) CO., LTD., priority 2016, published 2019)",
  "key": {"cytochrome p450": {"system": "cytochrome p450", "settings": "14C as a marker; cited from earlier work"}, "[1]": {"system": "NASH-modeled golden hamsters", "experiment": "NASH-modeled golden hamster (method as Example 4, changed doses)", "type": "in vivo", "settings": "obeticholic acid 5 mg/kg", "method": "The experimental method is referred to the Example 4, except for addition of Ezetimibe group (0.3 mg/kg), dosage change to 5 mg/kg obeticholic acid for the obeticholic acid group, as well as dosage change to 5 mg/kg obeticholic acid and 0.3 mg/kg Ezetimibe for the obeticholic acid+Ezetimibe group. Specifically, a normal group (A), a model group (B), an obeticholic acid group (C), an obeticholic acid+Ezetimibe group (D) and an Ezetimibe group (E) are included in this example.\nLiver tissue samples from individual golden hamsters after treatment were subjected to paraffin-sectioning, with results shown in FIG. 3."}, "[2]": {"settings": "patients in an obeticholic acid treatment group; cited from earlier work"}, "[3]": {"system": "NAFLD-modeled golden hamsters", "experiment": "Simple high-fat diet-induced NAFLD-modeled golden hamster", "type": "in vivo", "settings": "obeticholic acid 1 mg/kg, Ezetimibe 1 mg/kg, x ± s; for ALP / ALT / AST / HDL-C / LDL-C / TC / TG: plasma", "text": "Obeticholic acid and Ezetimibe each are formulated with 10% Kolliphor HS 15 (BASF, Lot. No. 21466288K0) to a desired concentration.\n78 specific pathogen free (SPF) male golden hamsters were provided, each with a body weight (BW) around 70 to 90 g, and commercially available from Beijing Vital River Laboratory Animal Technology Co., Ltd. Animal permit number is SCXK (Jing) 2012-0001.\n10 golden hamsters were fed with a base diet as a normal group, while 68 golden hamsters were fed with a high-fat diet formulated with 0.3% cholesterol, 12.5% palm oil and 87.2% base diet upon purchased. All of them had free access to water, and kept in a same light rhythm (day time/night time: 10 h/14 h). After 3 weeks of feed, the golden hamsters were fasted for 14 hours, with free access to water, and then sampled for blood in a volume of 0.8 mL from posterior orbital venous plexus the next day. The blood samples added with sodium heparin for anticoagulation were centrifuged at 5000 r·min^−1 for 10 minutes, and 300 μL of supernatant for each sample was transferred into an assay cup (in volume of microliter grade) of the Sysmex CHEX-180 automatic biochemical analyzer for determination of levels of TC, TG, LDL-C, HDL-C and ALT, with results for screening of the hamsters.\n6 out of 10 golden hamsters fed with the base diet were selected as a normal group, while 30 out of 68 golden hamsters fed with the high-fat diet were grouped into 3 experimental groups randomly (i.e. 10 hamsters for each group), respectively named model group, obeticholic acid group (1 mg/kg) and obeticholic acid (1 mg/kg)+Ezetimibe (1 mg/kg) group. From the first administration at PM 4:00 of the day after grouping, the 3 experimental groups were started to be each administered in a dosage of 10 mL·kg^−1, where the model group was administered with 10% Kolliphor in an equal volume. During administration, the normal group was still fed with the base diet, and the 3 experimental groups were fed with the high-fat diet. At 2 weeks of administration, all the golden hamsters were fasted but accessible to water overnight, and anesthetized with ethyl ether on the morning of the next day for collection of blood samples (in a volume of 0.8 mL) from the posterior orbital venous plexus. The blood samples added with sodium heparin for anticoagulation were centrifuged at 5000 r·min^−1 for 10 minutes, and 300 μL of plasma for each sample was transferred into the Sysmex CHEX-180 automatic biochemical analyzer for determination of levels of TC, TG, LDL-C, HDL-C, ALT, AST and ALP. At 4 weeks of administration, plasma of each hamster was collected for determination of levels of TC, TG LDL-C, HDL-C, ALT, AST and ALP. Afterwards, the hamsters were anesthetized with ethyl ether deeply, followed by weighting and laparotomy by an abdominal median incision for observation of size, color and texture of liver. After photographed, the liver was taken out, washed with saline and dried with filter paper, and weighted for calculation of liver index. Subsequently, left lobe of liver was cut out quickly and placed into 10% of neutral buffered formalin for immobilization, followed by preparation of paraffin sections (with HE staining) for observation of change of liver tissue pathology.\nThe results are represented in x±s, and comparison among groups is performed by t-test."}, "[4]": {"settings": "after 4 weeks of administration"}, "[5]": {"settings": "after 2 weeks of administration"}},
  "data": [
    {"smiles": "O=C1[C@H](CC[C@H](O)c2ccc(F)cc2)[C@@H](c2ccc(O)cc2)N1c1ccc(F)cc1", "note": "[Ezetimibe]", "values": [
      {"measurement": "metabolism by a primary drug metabolic enzyme (cytochrome p450)", "setting": "cytochrome p450", "value": "barely metabolized"},
      {"measurement": "ALP level", "setting": "[1]; Ezetimibe 0.3 mg/kg", "value": "reduces ALP level slightly"},
      {"measurement": "fat content in liver cells (pathological sections of liver tissues, FIG. 3)", "setting": "[1]; Ezetimibe 0.3 mg/kg", "value": "not reducing fat content in liver significantly"},
      {"measurement": "infiltration and aggregation of inflammatory cells (pathological sections of liver tissues, FIG. 3)", "setting": "[1]; Ezetimibe 0.3 mg/kg", "value": "ameliorating"},
      {"measurement": "level of LDL in plasma", "setting": "[1]; Ezetimibe 0.3 mg/kg", "value": "reduces levels of triglyceride, cholesterol, LDL, liver function enzymes in plasma significantly"},
      {"measurement": "level of cholesterol in plasma", "setting": "[1]; Ezetimibe 0.3 mg/kg", "value": "reduces levels of triglyceride, cholesterol, LDL, liver function enzymes in plasma significantly"},
      {"measurement": "level of triglyceride in plasma", "setting": "[1]; Ezetimibe 0.3 mg/kg", "value": "reduces levels of triglyceride, cholesterol, LDL, liver function enzymes in plasma significantly"},
      {"measurement": "levels of liver function enzymes (alanine aminotransferase and aspartate aminotransferase) in plasma", "setting": "[1]; Ezetimibe 0.3 mg/kg", "value": "reduces levels of triglyceride, cholesterol, LDL, liver function enzymes in plasma significantly"}
    ]},
    {"smiles": "CC[C@H]1[C@@H](O)[C@@H]2[C@H](CC[C@]3(C)[C@@H]([C@H](C)CCC(=O)O)CC[C@@H]23)[C@@]2(C)CC[C@@H](O)C[C@@H]12", "note": "[Obeticholic acid, obeticholic acid]", "values": [
      {"measurement": "level of high density lipoprotein compared to a placebo control", "setting": "[2]", "value": "lower"},
      {"measurement": "level of low density lipoprotein compared to a placebo control", "setting": "[2]", "value": "higher"},
      {"measurement": "level of total cholesterol compared to a placebo control", "setting": "[2]", "value": "higher"},
      {"measurement": "liver index (%)", "setting": "[3]; [4]", "value": "5.15 ± 0.33", "unit": "%"},
      {"measurement": "ALP", "setting": "[3]; [5]", "value": "190.20 ± 26.30", "unit": "U · L^−1"},
      {"measurement": "ALT", "setting": "[3]; [5]", "value": "120.50 ± 41.78^ U · L^−1"},
      {"measurement": "AST", "setting": "[3]; [5]", "value": "59.20 ± 14.01", "unit": "U · L^−1"},
      {"measurement": "HDL-C", "setting": "[3]; [5]", "value": "2.70 ± 0.37", "unit": "mmol/L"},
      {"measurement": "LDL-C", "setting": "[3]; [5]", "value": "7.07 ± 3.22", "unit": "mmol/L"},
      {"measurement": "TC", "setting": "[3]; [5]", "value": "14.32 ± 3.15^ mmol · L^−1"},
      {"measurement": "TG", "setting": "[3]; [5]", "value": "2.20 ± 0.52", "unit": "mmol/L"},
      {"measurement": "ALP", "setting": "[3]; [4]", "value": "196.30 ± 18.91", "unit": "U · L^−1"},
      {"measurement": "ALT", "setting": "[3]; [4]", "value": "165.20 ± 44.90", "unit": "U · L^−1"},
      {"measurement": "AST", "setting": "[3]; [4]", "value": "80.80 ± 13.13", "unit": "U · L^−1"},
      {"measurement": "HDL-C", "setting": "[3]; [4]", "value": "3.51 ± 0.71", "unit": "mmol/L"},
      {"measurement": "LDL-C", "setting": "[3]; [4]", "value": "16.04 ± 13.52", "unit": "mmol/L"},
      {"measurement": "TC", "setting": "[3]; [4]", "value": "22.89 ± 5.91", "unit": "mmol/L"},
      {"measurement": "TG", "setting": "[3]; [4]", "value": "2.07 ± 0.97", "unit": "mmol/L"},
      {"measurement": "blocking the progression of liver fibrosis (pathological sections of liver tissues)", "setting": "[1]", "value": "no effect"},
      {"measurement": "infiltration and aggregation of inflammatory cells (pathological sections of liver tissues, FIG. 3)", "setting": "[1]; Ezetimibe 0.3 mg/kg", "value": "no effect"}
    ]}
  ]
}
